Test results taken from patent US12091425B2 (AMGEN INC., priority 2016, dated 2024).

Tests used:
[1] = molecular target: T1, Mcl-1/Bim interaction, recombinant human Mcl-1 (171-327) (Homo sapiens, UniProt Q07820); test: Cell free Mcl-1: Bim Affinity Assay (Mcl-1 HTRF); format: binding
T1 construct: made in house
In short: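 Read-out is time-resolved FRET after overnight incubation, using a biotin-labelled peptide from human Bim (51-76) as the binding partner; IC50 was derived from competition curves.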

[2] = tested on: OPM-2 human multiple myeloma cell line; test: Cell Viability Assay (OPM-2 10 FBS); format: cell-based; details: OPM-2 cells, CellTiter-Glo
In short: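 IC50 from 4-parameter logistic fit of CellTiter-Glo luminescence. 3000 cells/well, 10% FBS medium, serial compound dilutions, 16 h, 37 °C/5% CO2; read 25 min post-reagent.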

[3] = TR-FRET, 0.1 nM Mcl-1 (171-327), 0.05 nM biotin-Bim (51-76)
[4] = Homo sapiens, OPM-2, 16 h, 16 h
[5] = cell free Mcl-1:Bim TR-FRET, recombinant human Mcl-1 (171-327)
[6] = Homo sapiens, OPM-2, 16 h, 16 h incubation

T1 sequence (Q07820 171-327): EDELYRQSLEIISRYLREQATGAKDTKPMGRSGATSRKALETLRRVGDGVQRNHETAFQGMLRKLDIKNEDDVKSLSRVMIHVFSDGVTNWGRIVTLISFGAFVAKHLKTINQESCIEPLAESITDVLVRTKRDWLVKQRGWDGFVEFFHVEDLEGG

IC50 [1, 3] [µM] | IC50 [2, 4] [µM] | Compound | IC50 ([2]; 16 h) [µM] | IC50 [1, 5] [µM] | also measured
 | 0.148 | COC[C@H](O)CN1[C@@H](C)C/C=C/[C@H](O)[C@@H]2CC[C@H]2CN2C[C@@]3(CCCc4cc(Cl)ccc43)COc3ccc(cc32)C(=O)NS1(=O)=O [Example 687, (1S,3′R,6′R,7′S,8′E,11′S)-6-chloro-7′-hydroxy-12′-((2R)-2-hydroxy-3-methoxypropyl)-11′-methyl-3,4-dihydro-2H,15′H-spiro[naphthalene-1,22′-[20]oxa[13]thia[1,12,14]triazatetracyclo[14.7.2.0^3,6.0^19,24]pentacosa[8,16,18,24]tetraen]-15′-one 13′,13′-dioxide] |  | 0.000207 | 
0.0235 |  | C[C@@H]1/C=C/[C@H](O)[C@@H]2CC[C@H]2CN2C[C@@]3(CCCc4cc(Cl)ccc43)COc3ccc(cc32)C(=O)NS(=O)(=O)[C@@H](C)C1 (single isomer, unassigned) [Example 1022] |  |  | IC50 ([2]; 16 h incubation): 22.7 µM
0.000483 |  | CO[C@H]1/C=C/[C@H](C)C[C@@H](C)S(=O)(=O)NC(=O)c2ccc3c(c2)N(C[C@@H]2CC[C@H]21)C[C@@]1(CCCc2cc(Cl)ccc21)CO3 [Example 1016, (1S,3′R,6′R,7′S,8′E,10′R,12′R)-6-chloro-7′-methoxy-10′,12′-dimethyl-3,4-dihydro-2H,15′H-spiro[naphthalene-1,22′-[20]oxa[13]thia[1,14]diazatetracyclo[14.7.2.0^3,6.0^19,24]pentacosa [8,16,18,24]tetraen]-15′-one 13′,13′-dioxide] |  |  | IC50 [2, 6]: 0.291 µM
 | 0.117 | COCCO[C@H]1/C=C/C[C@H](C)[C@@H](C)S(=O)(=O)NC(=O)c2ccc3c(c2)N(C[C@@H]2CC[C@H]21)C[C@@]1(CCCc2cc(Cl)ccc21)CO3 [Example 719, (1S,3′R,6′R,7′S,8′E,11′S,12′R)-6-chloro-7′-(2-methoxyethoxy)-11′,12′-dimethyl-3,4-dihydro-2H,15′H-spiro[naphthalene-1,22′-[20]oxa[13]thia[1,14]diazatetracyclo[14.7.2.0^3,6.0^19,24]pentacosa[8,16,18,24]tetraen]-15′-one-13′, 13′-dioxide] |  | 0.000366 | 
0.0004 |  | CC[C@@H]1CC/C=C/[C@H](O[C@H]2CCOC2=O)[C@@H]2CC[C@H]2CN2C[C@@]3(CCCc4cc(Cl)ccc43)COc3ccc(cc32)C(=O)NS1(=O)=O (single isomer, unassigned) [Example 425] | 0.304 |  | 
 | 0.439 | Cc1nc(CO[C@H]2/C=C/CC[C@@H](C)S(=O)(=O)NC(=O)c3ccc4c(c3)N(C[C@@H]3CC[C@H]32)C[C@@]2(CCCc3cc(Cl)ccc32)CO4)no1 [Example 603, (1S,3′R,6′R,7′S,8′E,12′R)-6-chloro-12′-methyl-7′-((5-methyl-1,2,4-oxadiazol-3-yl)methoxy)-3,4-dihydro-2H,15′H-spiro[naphthalene-1,22′-[20]oxa[13]thia[1,14]diazatetracyclo[14.7.2.0^3,6.0^19,24]pentacosa [8,16,18,24]tetraen]-15′-one 13′,13′-dioxide] |  | 0.000667 | 
0.000573 |  | CC[C@@H]1CC/C=C/[C@H](OCC(=O)NCCOC)[C@@H]2CC[C@H]2CN2C[C@@]3(CCCc4cc(Cl)ccc43)COc3ccc(cc32)C(=O)NS1(=O)=O [Example 1001, 2-(((1S,3′R,6′R,7′S,8′E,12′R)-6-chloro-12′-ethyl-13′,13′-dioxido-15′-oxo-3,4-dihydro-2H-spiro[naphthalene-1,22′-[20]oxa[13]thia[1,14]diazatetracyclo[14.7.2.0^3,6.0^19,24]pentacosa [8,16,18,24]tetraen]-7′-yl)oxy)-N-(2-methoxyethyl)acetamide] |  |  | IC50 [2, 6]: 0.861 µM

The remaining lines, values behind:

Compound | IC50 [1, 3] [µM] | IC50 [2, 4] [µM] | IC50 ([2]; 16 h) [µM] | IC50 [1, 5] [µM] | also measured
COCCNC(=O)CO[C@H]1/C=C/C[C@H](C)[C@@H](C)S(=O)(=O)NC(=O)c2ccc3c(c2)N(C[C@@H]2CC[C@H]21)C[C@@]1(CCCc2cc(Cl)ccc21)CO3 [Example 298, 2-(((1S,3′R,6′R,7′S,8′E,11′S,12′R)-6-chloro-11′,12′-dimethyl-13′,13′-dioxido-15′-oxo-3,4-dihydro-2H-[spiro[naphthalene-1,22′-20]oxa[13]thia[1,14]diazatetracyclo[14.7.2.0^3,6.0^19,24]pentacosa [8,16,18,24]tetraen]-7′-yl)oxy)-N-(2-methoxyethyl)acetamide] | 0.000425 | 0.86 |  |  | 
CC[C@H]1[C@H](OC)C/C=C/[C@H](O)[C@@H]2CC[C@H]2CN2C[C@@]3(CCCc4cc(Cl)ccc43)COc3ccc(cc32)C(=O)NS1(=O)=O (single isomer, unassigned) [Example 459] | 0.00337 |  | 3.3 |  | 
COCC[C@@H]1C[C@@H](C)/C=C/[C@H](O)[C@@H]2CC[C@H]2CN2C[C@@]3(CCCc4cc(Cl)ccc43)COc3ccc(cc32)C(=O)NS1(=O)=O (single isomer, unassigned) [Example 477] |  |  | 0.287 | 0.000311 | 
CO[C@H]1/C=C/C[C@H]2C[C@@H]2S(=O)(=O)NC(=O)c2ccc3c(c2)N(C[C@@H]2CC[C@H]21)C[C@@]1(CCCc2cc(Cl)ccc21)CO3 (single isomer, unassigned) [Example 804] |  |  | 0.377 | 0.000658 | 
COC(=O)CC[C@@]1(C)CC/C=C\[C@H](O)[C@@H]2CC[C@H]2CN2C[C@@]3(CCCc4cc(Cl)ccc43)COc3ccc(cc32)C(=O)NS1(=O)=O (single isomer, unassigned) [Example 563] |  |  | 4.5 | 0.00269 | 
COCCOCCN1CC/C=C/[C@H](O)[C@@H]2CC[C@H]2CN2C[C@@]3(CCCc4cc(Cl)ccc43)COc3ccc(cc32)C(=O)NS1(=O)=O [Example 22, (1S,3′R,6′R,7′S,8′E)-6-chloro-7′-hydroxy-12′-(2-(2-methoxyethoxy)ethyl)-3,4-dihydro-2H,15′H-spiro[naphthalene-1,22′-[20]oxa[13]thia[1,12,14]triazatetracyclo[14.7.2.0^3,6.0^19,24]pentacosa[8,16,18,24]tetraen]-15′-one 13,13′-dioxide] | 0.00037 | 0.276 |  |  | 
C[C@@H]1[C@@H](C)C/C=C/[C@H](OCC(=O)N2CCC(F)(F)CC2)[C@@H]2CC[C@H]2CN2C[C@@]3(CCCc4cc(Cl)ccc43)COc3ccc(cc32)C(=O)NS1(=O)=O [Example 315, (1S,3′R,6′R,7′S,8′E,11′S,12′R)-6-chloro-7′-(2-(4,4-difluoro-1-piperidinyl)-2-oxoethoxy)-11′,12′-dimethyl-3,4-dihydro-2H,15′H-spiro[naphthalene-1,22′-[20]oxa[13]thia[1,14]diazatetracyclo[14.7.2.0^3,6.0^19,24]pentacosa [8,16,18,24]tetraen]-15′-one 13′,13′-dioxide] | 0.000774 | 0.421 |  |  | 
COC(=O)CN1CC/C=C/[C@H](O)[C@@H]2CC[C@H]2CN2C[C@@]3(CCCc4cc(Cl)ccc43)COc3ccc(cc32)C(=O)NS1(=O)=O [Example 32, methyl((1S,3′R,6′R,7′S,8′E)-6-chloro-7′-hydroxy-13′,13′-dioxido-15′-oxo-3,4-dihydro-2H,12′H-spiro[naphthalene-1,22′-[20]oxa[13]thia[1,12,14]triazatetracyclo[14.7.2.0^3,6.0^19,24]pentacosa[8,16,18,24]tetraen]-12′-yl)acetate] | 0.000623 | 0.546 |  |  | 
O=C1NS(=O)(=O)N2CCOC[C@H]2C/C=C/[C@H](O)[C@@H]2CC[C@H]2CN2C[C@@]3(CCCc4cc(Cl)ccc43)COc3ccc1cc32 (single isomer, unassigned) [Example 343] | 0.00727 | 6.49 |  |  | 
(1S,3′R,6′R,7′S,11′S,13′R)-6-chloro-13′-methyl-3,4-dihydro-2H,17′H-spiro[naphthalene-1,24′-[8,12,22]trioxa[15]thia[1,16]diazapentacyclo[16.7.2.1^7,11.0^36.0^21,26]octacosa[18,20,26]trien]-17′-one 15′,15′-dioxide [Example 920] |  |  | 4.35 | 0.00186 | 
CCN1CC/C=C/[C@H](OCc2cscn2)[C@@H]2CC[C@H]2CN2C[C@@]3(CCCc4cc(Cl)ccc43)COc3ccc(cc32)C(=O)NS1(=O)=O [Example 88, (1S,3′R,6′R,7′S,8′E)-6-chloro-12′-ethyl-7′-(1,3-thiazol-4-ylmethoxy)-3,4-dihydro-2H,15′H-spiro[naphthalene-1,22′-[20]oxa[13]thia[1,12,14]triazatetracyclo[14.7.2.0^3,6.0^19,24]pentacosa[8,16,18,24]tetraen]-15′-one 13′,13′-dioxide] | 0.00171 | 1.04 |  |  | 
CO[C@H]1/C=C/CCN(C)S(=O)(=O)NC(=O)c2ccc3c(c2)N(C[C@@H]2CC[C@H]21)C[C@@]1(CCCc2cc(Cl)ccc21)CO3 (single isomer, unassigned) [Example 47] | 0.000629 | 1.28 |  |  | 
CC1CC(N(C)C)CC(O)C2CCC2CN2CC3(CCCc4cc(Cl)ccc43)COc3ccc(cc32)C(=O)NS(=O)(=O)C1C (single isomer, unassigned) [Example 248] | 0.000701 | 2.17 |  |  | 
COC[C@@H](O)C[C@@H]1[C@@H](C)C/C=C/[C@H](O)[C@@H]2CC[C@H]2CN2C[C@@]3(CCCc4cc(Cl)ccc43)COc3ccc(cc32)C(=O)NS1(=O)=O (single isomer, unassigned) [Example 673] |  |  | 0.445 | 0.000183 | 
COC(=O)[C@@H]1CC/C=C/[C@H](O)[C@@H]2CC[C@H]2CN2C[C@@]3(CCCc4cc(Cl)ccc43)COc3ccc(cc32)C(=O)NS1(=O)=O (single isomer, unassigned) [Example 160] | 0.000397 |  | 5.29 |  | 
O=C1NS(=O)(=O)[C@@H]2CCC[C@@H](/C=C/[C@H](O)[C@@H]3CC[C@H]3CN3C[C@@]4(CCCc5cc(Cl)ccc54)COc4ccc1cc43)C2 (single isomer, unassigned) [Example 105] | 0.000589 |  | 0.33 |  | 
